Measured values: patent US20160361288A1, “PHARMACEUTICAL COMPOSITIONS FOR PREVENTING OR TREATING DIABETIC N[…] ACTIVITY INHIBITOR OF TENC1” (POSTECH ACADEMY-INDUSTRY FOUNDATION, priority 2015, published 2016)

Columns and labels:
nephrin = test: Nephrin phosphorylation in kidney tissue of db/db mouse (immunoprecipitation); type: in vivo; details: 300 mg/kg orally daily for 2 weeks, FIG. 12
Procedure: (§1) An effect of DHTS, which is the representative material of the TENC1 inhibitors found through the screening described in Example 5, was identified using a diabetic nephropathy animal model. To this end, as a diabetic nephropathy animal model, a type II diabetic model, that is, a db/db mouse was used, and as a control, a db/m mouse was used. 10 week-old male db/m and db/db mice were divided into three groups including a group in which a vehicle was administered to a db/m mouse, a group in which a vehicle was administered to a db/db mouse, and a group in which 300 mg/kg of DHTS was administered to a db/db mouse for experiments, and the vehicle or drug was orally administered daily for 2 weeks according to each condition. As the vehicle, 1% carboxymethyl cellulose was used.
(§2) Further, to investigate whether the above result is obtained by inhibiting TENC1-induced nephrin dephosphorylation and increased mTORC1 signaling, immunoprecipitation and western blotting were performed with a kidney tissue sample extracted from a mouse.

db/db mouse = test: Diabetic nephropathy animal model, db/db mouse (fasting serum glucose, kidney weight, proteinuria); type: in vivo; details: 300 mg/kg orally daily for 2 weeks
Procedure: as §1
First, after the experiment described above, blood was taken from a mouse to measure a fasting serum glucose level. As a result, referring to FIG. 9, it was confirmed that the fasting serum glucose level was not decreased by the administration of DHTS for two weeks.
Therefore, it was confirmed that DHTS can improve the renal hypertrophy.

TENC1 = biological target: T1, TENC1 (Homo sapiens, UniProt Q63HR2, P1246L); test: Malachite Green assay screening for TENC1 inhibitor (PTPase activity of TENC1); type: biochemical; details: TENC1 protein isolated from cells, compared with control; FIG. 8
T1 construct: made in house; host or cells: cells (type not specified)
T1 sequence (Q63HR2 1-1409 P1246L): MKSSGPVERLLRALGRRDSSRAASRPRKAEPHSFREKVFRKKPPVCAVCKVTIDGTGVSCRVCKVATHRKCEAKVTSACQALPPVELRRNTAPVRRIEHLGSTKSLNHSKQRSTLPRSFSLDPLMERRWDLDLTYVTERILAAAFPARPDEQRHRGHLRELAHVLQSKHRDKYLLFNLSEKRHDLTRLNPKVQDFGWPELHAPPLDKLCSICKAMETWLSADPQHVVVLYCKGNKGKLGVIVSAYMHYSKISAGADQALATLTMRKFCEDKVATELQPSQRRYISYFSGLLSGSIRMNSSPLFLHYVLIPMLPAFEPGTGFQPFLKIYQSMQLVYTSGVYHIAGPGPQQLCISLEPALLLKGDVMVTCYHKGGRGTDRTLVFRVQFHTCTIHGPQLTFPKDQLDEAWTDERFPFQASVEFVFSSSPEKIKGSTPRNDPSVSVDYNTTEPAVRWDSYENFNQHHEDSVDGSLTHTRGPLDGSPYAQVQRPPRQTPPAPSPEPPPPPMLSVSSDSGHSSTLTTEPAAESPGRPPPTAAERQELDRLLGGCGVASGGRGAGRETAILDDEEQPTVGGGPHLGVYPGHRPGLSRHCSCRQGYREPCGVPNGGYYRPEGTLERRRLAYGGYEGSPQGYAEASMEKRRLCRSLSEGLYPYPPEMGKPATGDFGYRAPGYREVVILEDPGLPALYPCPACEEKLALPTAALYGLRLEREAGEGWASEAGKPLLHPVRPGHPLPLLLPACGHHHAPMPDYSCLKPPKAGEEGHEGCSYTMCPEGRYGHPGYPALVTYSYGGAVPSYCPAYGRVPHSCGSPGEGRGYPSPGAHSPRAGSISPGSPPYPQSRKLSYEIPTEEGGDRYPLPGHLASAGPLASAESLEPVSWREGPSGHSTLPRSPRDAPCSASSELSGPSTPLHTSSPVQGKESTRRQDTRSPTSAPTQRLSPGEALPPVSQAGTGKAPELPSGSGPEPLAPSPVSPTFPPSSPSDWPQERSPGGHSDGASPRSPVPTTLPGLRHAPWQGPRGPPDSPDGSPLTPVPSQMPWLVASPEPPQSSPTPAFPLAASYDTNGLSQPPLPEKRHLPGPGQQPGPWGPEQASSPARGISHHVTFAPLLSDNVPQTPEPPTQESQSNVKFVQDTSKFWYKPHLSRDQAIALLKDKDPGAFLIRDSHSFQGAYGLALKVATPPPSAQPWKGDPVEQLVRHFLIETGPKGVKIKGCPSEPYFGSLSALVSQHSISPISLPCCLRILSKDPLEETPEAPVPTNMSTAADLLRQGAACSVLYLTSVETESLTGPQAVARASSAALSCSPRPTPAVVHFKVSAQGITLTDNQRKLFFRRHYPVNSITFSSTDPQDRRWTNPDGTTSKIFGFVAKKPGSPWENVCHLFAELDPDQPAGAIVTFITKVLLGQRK
Procedure: According to the above results, it was confirmed that TENC1 overexpressed in a high glucose environment known as a leading cause of diabetic nephropathy inhibits phosphorylation of nephrin caused by dephosphorylation, and induces hypertrophy of the podocyte cell line. For this reason, to inhibit the hypertrophy of the podocyte cell line, screening was performed through a Malachite Green assay for finding a TENC1 inhibitor.
TENC1 protein isolated from the cells and each of the natural product library candidate compounds were put together for a predetermined time, and the PTPase activity of TENC1 was measured. […] Here, as a positive control, a PTPase inhibitor, sodium vanadate (Na3VO4; NAV) was used. Since there were almost no molecules left in the test tube, the method has a higher probability of discovering a direct regulator, compared with a cellular-level screening method.

mTORC1 signaling = mTORC1 signaling (S6K phosphorylation) in kidney tissue of db/db mouse (western blotting); type: in vivo; details: 300 mg/kg orally daily for 2 weeks, FIG. 13
Procedure: as §1, §2

differentiated podocyte = test: Filtration function of differentiated podocyte under high glucose (protein quantification); type: cell-based; details: high glucose condition of 30 mmol/L vs normal glucose 5 mmol/L; FIG. 11B

Cc1cccc2c3c(ccc12)C1=C(C(=O)C3=O)[C@@H](C)CO1 [DHTS, (1R)-1,6-dimethyl-1,2-dihydronaphtho[1,2-g][1]benzofuran-10,11-dione]
nephrin phosphorylation in kidney tissue (nephrin): recovered | fasting serum glucose level (db/db mouse; FIG. 9): not decreased | proteinuria (albumin ELISA) (db/db mouse; compared with vehicle db/db mouse, FIG. 11A): significantly reduced | kidney weight (renal hypertrophy; ratio of kidney weight to body weight) (db/db mouse; vs vehicle db/db and db/m, FIG. 10): such an increase was not shown | inhibitory effect on the PTPase activity of TENC1 (TENC1): inhibitory effect | S6K phosphorylation (pS6K) in kidney tissue (mTORC1 signaling): effectively inhibited | filtration function of the podocyte (differentiated podocyte): improved to a level similar to the result obtained under a the normal glucose condition
